The conditions of series [1]: room temperature.
In series [2] the test system is oval cancer and malignant tumors of the uterus. The following applies: cited from earlier work.
Series [3] concerns and malignant tumors of the uterus. The following applies: six patients, 100 mg orally twice daily; cited from earlier work.

The text below walks through data of patent US9546188B2, “Complexes of germanium with amino acids and carboxylic acids and method for preparing same” (OBSCHESTVO S OGRANICHENNOI OTVETSTVENNOSTYU “WDS FARMA”, priority 2012, dated 2017).

The structures appear in SMILES notation.

In series [1], `O=C(O)CCCCCCCC(=O)O` [azelaic acid] yielded a water solubility of 0.2%.
On to `N[C@@H](CC(=O)O)C(=O)O.[Ge]` [germanium compound with aspartic acid], for which, in series [2] (examination one month later), the “infiltration in post-operational examination” value is given as “None patients showed infiltration”. Also, the health of patients entry in series [2] (six patients, 100 mg orally as 10% solution twice daily, tumors removed surgically) was “noticeable improvement in health”. Also, the toxic side effects result in series [2] (six patients, 100 mg orally twice daily) is recorded as “no toxic side effects”. In addition, in series [3], the “exudate in the abdominal cavity or internal pelvic cavity” value is “five patients did not show exudate”.
